Measured values from PubChem BioAssay AID1845212 (Molecular Pharmacology Branch, DTP, NCI, 2023).
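Further: spheroids exposed to compounds for seven days; percent viability relative to DMSO vehicle control as 100%.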

These compounds were tested on NCI-H719 tumor spheroids, viability (assay: Anticancer human tumor NCI-H719 cell line growth inhibition). Details: second compound 0.03 µM; first compound 0.0316 µM; hits give low values; spheroids with HUVEC and MSC.
Method in brief: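 Single agents and combinations were tested on spheroids built from tumor cells plus HUVEC and hMSC, at half-log dilutions starting at or near clinical Cmax, else 10 microM; final DMSO 0.25% (v/v).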
With COc1ccc([C@@H](O)c2cc(-c3ncnc4cc(N5CCOCC5)ccc34)c(F)cc2Cl)nn1 + CC[C@@]1(O)C(=O)OCc2c1cc1n(c2=O)Cc2cc3c(CN(C)C)c(O)ccc3nc2-1 the viability, T/C was 5.79%.
Cc1cc(C)c(CNC(=O)c2cc(-c3ccc(CN4CCOCC4)cc3)cc3c2cnn3C2CCCC2)c(=O)[nH]1 + CC[C@@]1(O)C(=O)OCc2c1cc1n(c2=O)Cc2cc3c(CN(C)C)c(O)ccc3nc2-1 gave a viability, T/C of 6.03%.
[2H]c1nc(C)nc([2H])c1-c1cc(NC[C@@H](C)c2cccc3c(C(=O)NC)ccnc23)ncn1 + CC[C@@]1(O)C(=O)OCc2c1cc1n(c2=O)Cc2cc3c(CN(C)C)c(O)ccc3nc2-1 gave a viability, T/C of 7.23%.

Same assay, conditions: second compound 0.03 µM; first compound 0.1 µM; hits give low values; spheroids with HUVEC and MSC
Compound CC(C)n1c(=O)n(C)c2cnc3cc(F)c(-c4ccc(OCCCN5CCCCC5)nc4)cc3c21 + CC[C@@]1(O)C(=O)OCc2c1cc1n(c2=O)Cc2cc3c(CN(C)C)c(O)ccc3nc2-1 has a viability, T/C of 6.04%.
With CC1COCCN1c1cc(-c2ccnn2C)c2ccnc(-c3ccn[nH]3)c2n1 (stereo unspecified) + CC[C@@]1(O)C(=O)OCc2c1cc1n(c2=O)Cc2cc3c(CN(C)C)c(O)ccc3nc2-1 the viability, T/C was 5.35%.
For COc1cc(C)[nH]c(=O)c1CN1CCc2c(Cl)cc(C(OC)C3COC3)c(Cl)c2C1=O (stereo unspecified) + CC[C@@]1(O)C(=O)OCc2c1cc1n(c2=O)Cc2cc3c(CN(C)C)c(O)ccc3nc2-1, the viability, T/C was 8.47%.
COc1ccc([C@@H](O)c2cc(-c3ncnc4cc(N5CCOCC5)ccc34)c(F)cc2Cl)nn1 + CC[C@@]1(O)C(=O)OCc2c1cc1n(c2=O)Cc2cc3c(CN(C)C)c(O)ccc3nc2-1 showed a viability, T/C of 6.19%.
For Cc1cc(C)c(CNC(=O)c2cc(-c3ccc(CN4CCOCC4)cc3)cc3c2cnn3C2CCCC2)c(=O)[nH]1 + CC[C@@]1(O)C(=O)OCc2c1cc1n(c2=O)Cc2cc3c(CN(C)C)c(O)ccc3nc2-1, the viability, T/C was 5.75%.
[2H]c1nc(C)nc([2H])c1-c1cc(NC[C@@H](C)c2cccc3c(C(=O)NC)ccnc23)ncn1 + CC[C@@]1(O)C(=O)OCc2c1cc1n(c2=O)Cc2cc3c(CN(C)C)c(O)ccc3nc2-1 showed a viability, T/C of 6.65%.

Same assay, conditions: second compound 0.03 µM; first compound 0.316 µM; hits give low values; spheroids with HUVEC and MSC
CC(C)n1c(=O)n(C)c2cnc3cc(F)c(-c4ccc(OCCCN5CCCCC5)nc4)cc3c21 + CC[C@@]1(O)C(=O)OCc2c1cc1n(c2=O)Cc2cc3c(CN(C)C)c(O)ccc3nc2-1 was tested, and the viability, T/C was 7.74%.
CC1COCCN1c1cc(-c2ccnn2C)c2ccnc(-c3ccn[nH]3)c2n1 (stereo unspecified) + CC[C@@]1(O)C(=O)OCc2c1cc1n(c2=O)Cc2cc3c(CN(C)C)c(O)ccc3nc2-1 showed a viability, T/C of 4.66%.
With COc1cc(C)[nH]c(=O)c1CN1CCc2c(Cl)cc(C(OC)C3COC3)c(Cl)c2C1=O (stereo unspecified) + CC[C@@]1(O)C(=O)OCc2c1cc1n(c2=O)Cc2cc3c(CN(C)C)c(O)ccc3nc2-1 the viability, T/C was 6.68%.
Work on COc1ccc([C@@H](O)c2cc(-c3ncnc4cc(N5CCOCC5)ccc34)c(F)cc2Cl)nn1 + CC[C@@]1(O)C(=O)OCc2c1cc1n(c2=O)Cc2cc3c(CN(C)C)c(O)ccc3nc2-1 yielded a viability, T/C of 5.16%.
In the case of Cc1cc(C)c(CNC(=O)c2cc(-c3ccc(CN4CCOCC4)cc3)cc3c2cnn3C2CCCC2)c(=O)[nH]1 + CC[C@@]1(O)C(=O)OCc2c1cc1n(c2=O)Cc2cc3c(CN(C)C)c(O)ccc3nc2-1, the viability, T/C is reported as 6.33%.
In the case of [2H]c1nc(C)nc([2H])c1-c1cc(NC[C@@H](C)c2cccc3c(C(=O)NC)ccnc23)ncn1 + CC[C@@]1(O)C(=O)OCc2c1cc1n(c2=O)Cc2cc3c(CN(C)C)c(O)ccc3nc2-1, the viability, T/C is reported as 6.56%.

Same assay, conditions: second compound 0.03 µM; first compound 1 µM; hits give low values; spheroids with HUVEC and MSC
CC(C)n1c(=O)n(C)c2cnc3cc(F)c(-c4ccc(OCCCN5CCCCC5)nc4)cc3c21 + CC[C@@]1(O)C(=O)OCc2c1cc1n(c2=O)Cc2cc3c(CN(C)C)c(O)ccc3nc2-1 was tested, and the viability, T/C was 6.96%.
Compound CC1COCCN1c1cc(-c2ccnn2C)c2ccnc(-c3ccn[nH]3)c2n1 (stereo unspecified) + CC[C@@]1(O)C(=O)OCc2c1cc1n(c2=O)Cc2cc3c(CN(C)C)c(O)ccc3nc2-1 has a viability, T/C of 4.18%.
COc1cc(C)[nH]c(=O)c1CN1CCc2c(Cl)cc(C(OC)C3COC3)c(Cl)c2C1=O (stereo unspecified) + CC[C@@]1(O)C(=O)OCc2c1cc1n(c2=O)Cc2cc3c(CN(C)C)c(O)ccc3nc2-1 showed a viability, T/C of 8.32%.
COc1ccc([C@@H](O)c2cc(-c3ncnc4cc(N5CCOCC5)ccc34)c(F)cc2Cl)nn1 + CC[C@@]1(O)C(=O)OCc2c1cc1n(c2=O)Cc2cc3c(CN(C)C)c(O)ccc3nc2-1 showed a viability, T/C of 5.17%.
Cc1cc(C)c(CNC(=O)c2cc(-c3ccc(CN4CCOCC4)cc3)cc3c2cnn3C2CCCC2)c(=O)[nH]1 + CC[C@@]1(O)C(=O)OCc2c1cc1n(c2=O)Cc2cc3c(CN(C)C)c(O)ccc3nc2-1 showed a viability, T/C of 5.99%.
In the case of [2H]c1nc(C)nc([2H])c1-c1cc(NC[C@@H](C)c2cccc3c(C(=O)NC)ccnc23)ncn1 + CC[C@@]1(O)C(=O)OCc2c1cc1n(c2=O)Cc2cc3c(CN(C)C)c(O)ccc3nc2-1, the viability, T/C is reported as 8.39%.

Same assay, conditions: second compound 0.03 µM; first compound 3.16 µM; hits give low values; spheroids with HUVEC and MSC
Work on CC(C)n1c(=O)n(C)c2cnc3cc(F)c(-c4ccc(OCCCN5CCCCC5)nc4)cc3c21 + CC[C@@]1(O)C(=O)OCc2c1cc1n(c2=O)Cc2cc3c(CN(C)C)c(O)ccc3nc2-1 yielded a viability, T/C of 8.35%.
With CC1COCCN1c1cc(-c2ccnn2C)c2ccnc(-c3ccn[nH]3)c2n1 (stereo unspecified) + CC[C@@]1(O)C(=O)OCc2c1cc1n(c2=O)Cc2cc3c(CN(C)C)c(O)ccc3nc2-1 the viability, T/C was 5.76%.
Work on COc1cc(C)[nH]c(=O)c1CN1CCc2c(Cl)cc(C(OC)C3COC3)c(Cl)c2C1=O (stereo unspecified) + CC[C@@]1(O)C(=O)OCc2c1cc1n(c2=O)Cc2cc3c(CN(C)C)c(O)ccc3nc2-1 yielded a viability, T/C of 8.79%.
Work on COc1ccc([C@@H](O)c2cc(-c3ncnc4cc(N5CCOCC5)ccc34)c(F)cc2Cl)nn1 + CC[C@@]1(O)C(=O)OCc2c1cc1n(c2=O)Cc2cc3c(CN(C)C)c(O)ccc3nc2-1 yielded a viability, T/C of 4.89%.
In the case of Cc1cc(C)c(CNC(=O)c2cc(-c3ccc(CN4CCOCC4)cc3)cc3c2cnn3C2CCCC2)c(=O)[nH]1 + CC[C@@]1(O)C(=O)OCc2c1cc1n(c2=O)Cc2cc3c(CN(C)C)c(O)ccc3nc2-1, the viability, T/C is reported as 6.45%.
